Here are results for three compounds from patent publication US12459900B2, “Compounds for treating conditions related to oxidative stress” (priority 2021, dated 2025).

A short description of assay [1]: DPPH antioxidant (free radical scavenging) assay. Format: biochemical. The note with it: duplicate, 5 concentrations, read at 517 nm; read-out: IC50 (DPPH assay, anti-oxidant activity). Here is the method:
NWD-19, NWD-15, and NWD-14 were evaluated for antioxidant activity using the 2,2-diphenyl-1-picrylhydrazyl (DPPH) assay. The DPPH assay was used to predict antioxidant activities by mechanism in which antioxidants act to inhibit lipid oxidation, so scavenging of DPPH radical and therefore determinate free radical scavenging capacity. The DPPH antioxidant assay kit (Dokindo Molecular Technologies, Inc.) was used, and the plates were read at 517 nm on the BioTek Synergy HT plate reader (Gen5 software). All compounds were tested in duplicate at 5 concentrations to determine the anti-oxidant activity of each compound.
(DPPH is a stable violet radical that fades when it is reduced.)

The test system of another assay is CT-26 cells. In words: Cytotoxicity in CT-26 cancer cell line (cell titer glo 2.0). Type of assay: cell-based. The note with it: Mus musculus, CT26; overnight incubation, triplicate, 6 concentrations; read-out: EC50 (percent survival, CT-26 cells). Here is the method: The CT-26 cell lines were plated at the appropriate pre-determined plating density in the 96 well plate and allowed to attach for about 16 hrs. After a suitable confluence was ensured (about 70-80%) the media was replaced with fresh media and the test compound was added to the plate in triplicate at 6 concentrations. Appropriate vehicle and positive controls were also added, and the plate was incubated overnight in a CO2 (95%)/O2 (5%) incubator at 37° C. temperature. After incubation the plate was assayed for cytotoxicity using cell titer glo 2.0 assay (Promega) on the BioTek Synergy HT plate reader (Gen5 software).

The test system of assay [2] is Primary retinal pigment endothelial cell line (RPE). The assay is described as follows: Protection from AAPH induced oxidative stress in RPE cells (viability, cell titer glo 2.0). Format: cell-based. The note with it: 1.25 μM NWD-19 pre-treatment overnight, AAPH 10 mM overnight. The procedure:
Primary retinal pigment endothelial cell line (RPE) were plated in appropriate growth medium in a 96 well plate overnight (16-24 hrs). Once 80-90% confluence was achieved the cells were then treated with NWD-19 at a concentration range of 0.039 uM to 1.25 μM. Appropriate blanks were also added and the plate was incubated overnight in a CO2 (95%)/O2 (5%) incubator at 37° C. temperature. Following incubation all wells were treated with AAPH at 10 mM to induce oxidative stress and incubated overnight. After incubation the plate was assayed for viability using cell titer glo 2.0 assay (Promega).
(In general: Cellular ATP, detected with luciferase, serves as a proxy for viable cell number.)

In another assay the test system is RPE primary cells. In words: TBARS assay in RPE primary cells after AAPH induced oxidative stress. Type of assay: cell-based. The following applies: AAPH 10 mM, activity up to 0.078 μM concentration. The procedure:
Primary retinal pigment endothelial cell line (RPE) were plated in appropriate growth medium in a 96 well plate overnight (16-24 hrs). Cells were then treated with NWD-19 at 7 concentrations and incubated overnight. Following incubation all wells were treated with AAPH at 10 mM to induce oxidative stress and incubated overnight. The TBARS assay was then utilized to evaluate the anti-oxidant potential of the compound in the RPE cells at various concentrations.

For assay [3], the system named is Benzalkonium chloride induced dry eyes. The assay is described as follows: Benzalkonium chloride induced dry eyes in C57BL/6 mice. Type of assay: in vivo. The note with it: daily topical drops 10 μM from day 8 to day 21 of 0.2% BAC treatment. Here is the method: Benzalkonium chloride (BAC) is a commonly used preservative in ophthalmic solutions. However, it has been reported to increase the risk of dry eye disease due to its toxicity on the ocular surface, the conjunctiva, the cornea and even deeper ocular structures. 5 uL 0.2% BAC in mice eyes has been reported to cause dry eye symptoms without affecting aqueous tear production, inflammation, or corneal smoothness (Richard Zhang, et al. Dose-dependent benzalkonium chloride toxicity imparts ocular surface epithelial changes with features of dry eye disease, The Ocular Surface, Volume 18, Issue 1, 2020, Pages 158-169).
Symptoms of dry eye disease were induced in 24 male and female C57/BL6 mice for 21 days using 0.2% daily eye drops of BAC. Daily topical application of NWD-19 at 10 μM concentration started at day 8 post BAC treatment and continued until day 21, whereas the control mice eyes were treated with PBS during this period. […] At pre-dose and subsequently on days 7, 14 and 21 post dose the mice eyes were examined by a veterinary ophthalmologist for corneal lesions and dry eye was also evaluated using a drop of 0.1% fluorescein solution in each treated eye and observation and scoring using a cobalt blue filter. […]

On to `CC1=NN(c2ccccc2)C(=O)C1CCCC[P+](c1ccccc1)(c1ccccc1)c1ccccc1` (stereo not shown) [NWD-15, (4-(3-methyl-5-oxo-1-phenyl-4,5-dihydro-1H-2l4-pyrazol-4-yl)butyl) triphenyl-phosphonium bromide], for which, in assay [1], the IC50 worked out at 2.3 µM.

Regarding `CC1=NN(c2ccccc2)C(=O)C1CCCCCCCCCC[P+](c1ccccc1)(c1ccccc1)c1ccccc1.[Br-]` (stereo not shown) [NWD-19, (10-(3-methyl-5-oxo-1-phenyl-4,5-dihydro-1H-pyrazol-4-yl)decyl) triphenyl phosphonium bromide], in assay [1], the IC50 was 2.1 µM. Besides, the EC50 with CT-26 cells is 9.6 µM. Also, in assay [2], the “cell survival after AAPH induced oxidative stress” value is about 50%. Also, the “anti-oxidant activity in TBARS assay (malonaldehyde equivalents)” value with RPE primary cells is recorded as “significant anti-oxidant activity”. For the same compound, the “condition of the eyes (corneal lesions, dry eye fluorescein scoring) compared to vehicle control eyes” value in assay [3] is “masked improvement”.

Take `O=c1cc(CCCC[P+](c2ccccc2)(c2ccccc2)c2ccccc2)[nH]n1-c1ccccc1` [NWD-14, (4-(5-oxo-1-phenyl-2,5-dihydro-1H-pyrazol-3-yl)butyl) triphenyl phosphonium bromide]: the 50% inhibitory concentration (IC50) in assay [1] turned out to be 2.8 µM.

In general, IC50 refers to the concentration that gives 50% inhibition. What is called EC50 is the concentration giving half of the maximal effect.
